These results are taken from paper PMC6745035, “Novel tetrahydroacridine derivatives with iodobenzoic moieties induce G0/G1 cell cycle arrest and apoptosis in A549 non-small lung cancer and HT-29 colorectal cancer cells” (Molecular and Cellular Biochemistry, 2019).

What all share (assay type): cell-based, human
One experiment has as its system EA.hy926 cells. The experiment in a line: MTT cytotoxicity assay, EA.hy926. As to conditions: Homo sapiens, EA.hy 926, 24 h, MTT, 24 h incubation; read-out: IC50 µM ± SD against EA.hy926. The source says:
The EA.hy926 cells (the human umbilical vein, somatic cell hybrid) (American Type Culture Collection) are immortalized human umbilical vein endothelial cells. They have morphological, phenotypic and functional characteristics of human endothelial cells, without the limited lifespan. This cell line has been considered as a good model for anticancer drug screening and was chosen to evaluate the endothelial cytotoxicity of novel compounds.
(§1) The MTT assay was used to evaluate cell metabolic activity. The test principle is based on the determination of cell viability by measuring the metabolic activity in mitochondria. Enzymatically active mitochondria reduce the water-soluble MTT (3-(4,5-dimethylthiazol-2-yl)-2,5 diphenyltetrazoliumbromide) to blue–violet insoluble formazan. The number of viability cells is proportional to the colour intensity determined by photometric measurements (an analytical wavelength 570 nm) after dissolving the formazan in Dimethylsulfoxide (DMSO) (Serva) and Sorensen’s glycine buffer. MTT (Sigma Aldrich) was dissolved in Phosphate Buffered Saline (PBS) (PAN-Biotech) at a concentration of 0.5 mg/mL. Sorensen’s glycine buffer is made of 0.1 M glycine and 0.1 M NaCl, at pH 10.5. Studied compounds were dissolved in DMSO in order to receive stock solutions.
(§2) For the assay, cells were seeded into 96-well plates at density 10^4 cells per well and cultured for 24 h at 37 °C and 5% CO2. Then medium was removed, and cells were exposed to the 100 µL of the compound solutions over a range of concentrations (final DMSO concentration was below 0.2%) or nothing but culture medium (blank control). Pure DMSO was used as a positive control. After 24 h of incubation with the compound solutions, medium was removed and 50 µL of the MTT solution was added to each well and incubated in the dark for additional 2 h at 37 °C. Then the MTT solution was carefully removed and 100 µL of DMSO was added. Plates were incubated for 10 min at room temperature. Finally, 5 µL of Sorensen Buffer was added to each well. Plate was swayed, and the absorbance was measured by using microplate reader (Synergy H1, BioTek, Winooski, VT, USA) at a wavelength of 570 nm. The cell viability was expressed as a percentage of the control values (blank). The experiments were done in triplicate.
(In general: Formazan colour is commonly taken as a measure of viable cells.)

Experiment [1] relates to A549 cells. The experiment in a line: MTT cytotoxicity assay, A549. As to conditions: Homo sapiens, A549, 24 h, MTT, 24 h incubation; read-out: IC50 µM ± SD against A549.
Excerpt: A549 cell line (lung carcinoma from human) (European Collection of Cell Culture) and HT-29 cell line (colorectal adenocarcinoma from human) (American Type Culture Collection) were chosen to evaluate the cytotoxicity of novel compounds.
as §1, §2

The subject of experiment [2] is HT-29 cells. The experiment in a line: Cell cycle analysis (PI, flow cytometry), HT-29. As to conditions: HT-29, 24 h, 10 µM. How it is done:
(§3) Then, compounds were added into the wells and cells were further incubated for 24 h. After incubation, monolayer and supernatant cells were harvested and washed in PBS. Then, cells were centrifuged (monolayer—1200 rpm for 10 min, supernatant 3500 rpm for 10 min) and fixed in cold 70% ethanol. Pellets were kept at 4 °C for at least 2 h. Prior to analysis, cells were centrifuged and re-suspended in RNAsi (type 1-A; Sigma Aldrich)—PBS working solution (200 µg/mL). Samples were incubated at 37 °C for 10 min. At the end, 3 µL of 2 mg/mL propidium iodide (PI) (Sigma Aldrich) solution was added to each sample. Samples were kept in the dark prior to analysis. Analysis was performed on BD Accuri C6 Flow Cytometry (Becton–Dickinson). Etoposide (Calbiochem) was used as a reference drug. Experiments were done in triplicates.
For orientation: A flow cytometer gives signals particle by particle.

In experiment [3] the test system is A549 cells. The experiment in a line: Apoptosis assay by annexin-V/PI double staining, A549. The conditions noted are these: A549, 24 h, 75 µM; control 7.80%. The protocol:
(§4) Compounds were added to the cells and further incubated for 24 h. After treatment, monolayer and supernatant cells were harvested, washed with PBS and centrifuged (monolayer at 1200 rpm for 10 min, supernatant at 3500 rpm for 10 min). Then, cells were re-suspended in binding buffer and stained with 2 µL of Annexin-V and […] of PI (ANNEXIN-V—FITC Apoptosis Detection Kit, Immunostep) in the dark for 10 min at room temperature. Cells were analysed by BD Accuri C6 Flow Cytometry (Becton–Dickinson). Etoposide (Calbiochem) was used as a reference drug. Experiments were done in triplicates.

In experiment [4] the test system is HT-29 cells. The experiment in a line: Apoptosis assay by annexin-V/PI double staining, HT-29. The conditions noted are these: HT-29, 24 h, 25 µM; control 8.62%. The protocol: as §4
In experiment [5] the test system is A549 cells. The experiment in a line: Cell cycle analysis (PI, flow cytometry), A549. The conditions noted are these: A549, 24 h, 10 µM. How it is done:
as §3

For the compound `COc1cc([C@@H]2c3cc4c(cc3[C@@H](O[C@@H]3O[C@@H]5CO[C@@H](C)O[C@H]5[C@H](O)[C@H]3O)[C@H]3COC(=O)[C@H]23)OCO4)cc(OC)c1O` [Etoposide, reference compound], the IC50 with EA.hy926 cells amounted to 155 ± 9.81 µM; with A549 cells [1], 451 ± 18.3 µM. Also, the “Cells in G2/M phase” value in the experiment with HT-29 cells [2] came to 73.84%; with A549 cells [5], 66.02%. The Total apoptotic cells with A549 cells [3] turned out to be 43.46%; with HT-29 cells [4], 18.18%. In addition, in the experiment with A549 cells [5], the “Cells in G0/G1 phase” value is reported as 27.31%. In the experiment on A549 cells [5], the “Cells in S phase” value stood at 6.67%.

What is called IC50 is the concentration at which inhibition is half-maximal.
